Laboratory results: patent publication US6777412B2 (priority 1990, dated 2004)
Like-named read-outs stand apart in the source and are kept apart here. Marks after values point to notes of the source that are not given here.

Legend:
Format in all cases: in vivo
Puccinia recondita = test: Foliar fungal disease test on plants: Puccinia recondita (Pr)
Outline: (§1)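 Potted plants treated by foliar spray to maximum retention (100 ppm a.i. unless stated) plus root drench (~40 ppm a.i. in dry soil), with 0.05% Tween 20 on cereals, one or two days before spore-suspension inoculation.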

Erysiphe graminis hordei = test: Foliar fungal disease test on plants: Erysiphe graminis hordei (Egh)
Description: (§2) The compounds were tested against a variety of foliar fungal diseases of plants. The technique employed was as follows.
(§3) The plants were grown in John Innes Potting Compost (No.1 or 2) in 4 cm diameter minipots. The test compounds were formulated either by bead milling with aqueous Dispersol T or as a solution in acetone or acetone/ethanol which was diluted to the required concentration immediately before use. For the foliage diseases, the formulations (100 ppm active ingredient except where otherwise indicated) were sprayed onto the foliage and applied to the roots of the plants in the soil. The sprays were applied to maximum retention and the root drenches to a final concentration equivalent to approximately 40 ppm a.i. in dry soil. Tween 20, to give a final concentration of 0.05%, was added when the sprays were applied to cereals.
(§4) For most of the tests the compound was applied to the soil (roots) and to the foliage (by spraying) one or two days before the plant was inoculated with the disease. An exception was the test on Erysiphe graminis in which the plants were inoculated 24 hours before treatment. Foliar pathogens were applied by spray as spore suspensions onto the leaves of test plants. After inoculation, the plants were put into an appropriate environment to allow infection to proceed and then incubated until the disease was ready for assessment. The period between inoculation and assessment varied from four to fourteen days according to the disease and environment.
(§5) The disease control vas recorded by the following grading:
(§6) 3=trace-5% of disease on untreated plants
(§7) 2=6-25% of disease on untreated plants
(§8) 1=26-59% of disease on untreated plants
(§9) 0=60-100% of disease on untreated plants
Egh Erysiphe graminis hordei

Pyricularia oryzae = tested on: Pyricularia oryzae
Thanatephorus cucumeris = test: Foliar fungal disease test on plants: Thanatephorus cucumeris (Tc)
Description: as §2, §3, §4, §5, §6, §7, §8, §9
Tc Thanatephorus cucumeris

Venturia inaequalis = test: Foliar fungal disease test on plants: Venturia inaequalis (Vi)
Outline: as §1

Plasmopara viticola = test: Foliar fungal disease test on plants: Plasmopara viticola (Pv)
Outline: as §1

[1] = tested on: Phytophthora infestans lycopersici
Septoria nodorum = test: Foliar fungal disease test on plants: Septoria nodorum (Sn)
Description: as §2, §3, §4, §5, §6, §7, §8, §9

[2] = tested on: Erysiphe graminis tritici; test: Foliar fungal disease test on plants: Erysiphe graminis tritici (Egt); settings: 100 ppm active ingredient foliar spray plus root drench (approx. 40 ppm a.i. in dry soil); plants inoculated 24 hours before treatment
Description: as §2, §3, §4, §5, §6, §7, §8, §9
Egt Erysiphe graminis tritici

[3] = 100 ppm active ingredient foliar spray plus root drench (approx. 40 ppm a.i. in dry soil), one or two days before inoculation
[4] = 100 ppm active ingredient foliar spray plus root drench (approx. 40 ppm a.i. in dry soil), plants inoculated 24 hours before treatment

Structure (SMILES) | disease control grading, Pr (Puccinia recondita) (Puccinia recondita; [3]) | disease control grading, Egh (Erysiphe graminis hordei) (Erysiphe graminis hordei; [4]) | disease control grading, Po (Pyricularia oryzae) (Pyricularia oryzae; [3]) | disease control grading, Tc (Thanatephorus cucumeris) (Thanatephorus cucumeris; [3]) | disease control grading, Vi (Venturia inaegualis) (Venturia inaequalis; [3]) | disease control grading, Pv (Plasmopara viticola) (Plasmopara viticola; [3]) | disease control grading, Pil (Phytophthora infestans lycopersici) [1, 3] | disease control grading, Pr (Puccinia recondita) (Puccinia recondita; 10 ppm foliar application only) | disease control grading, Egh (Erysiphe graminis hordei) (Erysiphe graminis hordei; 10 ppm foliar application only) | disease control grading, Sn (Septoria nodorum) (Septoria nodorum; 10 ppm foliar application only) | disease control grading, Po (Pyricularia oryzae) (Pyricularia oryzae; 10 ppm foliar application only) | disease control grading, Tc (Thanatephorus cucumeris) (Thanatephorus cucumeris; 10 ppm foliar application only) | disease control grading, Vi (Venturia inaegualis) (Venturia inaequalis; 10 ppm foliar application only) | disease control grading, Pv (Plasmopara viticola) (Plasmopara viticola; 10 ppm foliar application only) | disease control grading, Pil (Phytophthora infestans lycopersici) ([1]; 10 ppm foliar application only) | disease control grading, Sn (Septoria nodorum) (Septoria nodorum; [3]) | disease control grading, Egt (Erysiphe graminis tritici) [2]
CO/C=C(/C(=O)OC)c1ccccc1Oc1cc(OCc2ccc([N+](=O)[O-])cc2)ncn1 [133 of Table I] | 4 (4=no disease) | 4 (4=no disease) | 3 (3=trace-5% of disease on untreated plants) | 4 (4=no disease) | 3 (3=trace-5% of disease on untreated plants) | 4 (4=no disease) | 0 (0=60-100% of disease on untreated plants) | – | – | – | – | – | – | – | – | – | –
CO/C=C(/C(=O)OC)c1ccccc1Oc1cc(OCc2ccccc2[N+](=O)[O-])ncn1 [375 of Table I] | 4 (4=no disease) | 4 (4=no disease) | 4 (4=no disease) | 4 (4=no disease) | 3 (3=trace-5% of disease on untreated plants) | 3 (3=trace-5% of disease on untreated plants) | 0 (0=60-100% of disease on untreated plants) | – | – | – | – | – | – | – | – | – | –
CO/C=C(/C(=O)OC)c1ccccc1Oc1cc(OC/C=C/c2ccccc2)ncn1 [376 of Table I] | 4 (4=no disease) | 4 (4=no disease) | 3 (3=trace-5% of disease on untreated plants) | 4 (4=no disease) | 4 (4=no disease) | 4 (4=no disease) | 4 (4=no disease) | – | – | – | – | – | – | – | – | – | –
CO/C=C(/C(=O)OC)c1ccccc1Oc1cc(OCc2c(Cl)cccc2C(F)(F)F)ncn1 [383 of Table I] | – | – | – | – | – | – | – | 4^a (4=no disease) | 0^a (0=60-100% of disease on untreated plants) | 4^a (4=no disease) | 0^a (0=60-100% of disease on untreated plants) | 4^a (4=no disease) | 3^a (3=trace-5% of disease on untreated plants) | 4^a (4=no disease) | 0^a (0=60-100% of disease on untreated plants) | – | –
CO/C=C(/C(=O)OC)c1ccccc1Oc1cc(OCCCc2ccccc2Cl)ncn1 [384 of Table I] | 4 (4=no disease) | 4 (4=no disease) | – | 4 (4=no disease) | 4 (4=no disease) | 4 (4=no disease) | 4 (4=no disease) | – | – | – | – | – | – | – | – | 4 (4=no disease) | –
CO/C=C(/C(=O)OC)c1ccccc1Oc1cc(OCc2ccccc2C(F)(F)F)ncn1 [385 of Table I] | 4 (4=no disease) | 4 (4=no disease) | – | 4 (4=no disease) | 4 (4=no disease) | 4 (4=no disease) | 4 (4=no disease) | – | – | – | – | – | – | – | – | 4 (4=no disease) | –
CO/C=C(/C(=O)OC)c1ccccc1Oc1cc(OCc2c(F)cccc2Cl)ncn1 [386 of Table I] | 4 (4=no disease) | 4 (4=no disease) | 4 (4=no disease) | 4 (4=no disease) | 4 (4=no disease) | 4 (4=no disease) | 4 (4=no disease) | – | – | – | – | – | – | – | – | 4 (4=no disease) | –
CO/C=C(/C(=O)OC)c1ccccc1Oc1cc(OCC#Cc2ccccc2)ncn1 [387 of Table I] | 4 (4=no disease) | 4 (4=no disease) | 4 (4=no disease) | 4 (4=no disease) | 4 (4=no disease) | 4 (4=no disease) | 4 (4=no disease) | – | – | – | – | – | – | – | – | 4 (4=no disease) | –
CO/C=C(/C(=O)OC)c1ccccc1Oc1cc(OCc2c(F)c(F)c(F)c(F)c2F)ncn1 [388 of Table I] | 4 (4=no disease) | 4 (4=no disease) | 4 (4=no disease) | 4 (4=no disease) | 4 (4=no disease) | 4 (4=no disease) | 4 (4=no disease) | – | – | – | – | – | – | – | – | 4 (4=no disease) | –
CO/C=C(/C(=O)OC)c1ccccc1Oc1cc(OCc2ccccc2C#N)ncn1 [389 of Table I] | – | – | – | – | – | – | – | 4^a (4=no disease) | 4^a (4=no disease) | 4^a (4=no disease) | 4^a (4=no disease) | 4^a (4=no disease) | 4^a (4=no disease) | 4^a (4=no disease) | 0^a (0=60-100% of disease on untreated plants) | – | –
CO/C=C(/C(=O)OC)c1ccccc1Oc1cc(Sc2nc3ccccc3s2)ncn1 [530 of Table I] | 3 (3=trace-5% of disease on untreated plants) | – | 0 (0=60-100% of disease on untreated plants) | – | 4 (4=no disease) | 4 (4=no disease) | 4 (4=no disease) | – | – | – | – | – | – | – | – | 4 (4=no disease) | 4 (4=no disease)
